ChEMBL document CHEMBL1150859, “Gelliusterols A--D, new acetylenic sterols from a sponge, Gellius species” (J Nat Prod, 2001)
Values after ≈ are worked out from the molar mass of the structure shown.

What was measured:
Type in all cases: functional, cell-based
HT-29 = assay: Cytotoxicity against human HT-29 cells
P388 = assay: Cytotoxicity against mouse P388 cells
A549 = assay: Cytotoxicity against human A549 cells
DU-145 = assay: Cytotoxicity against human DU145 cells
SK-MEL-28 = assay: Cytotoxicity against human SK-MEL-28 cells

SMILES | IC50 (HT-29) [µg/mL] | IC50 (P388) [µg/mL] | IC50 (A549) [µg/mL] | IC50 (DU-145) [µg/mL] | IC50 (SK-MEL-28) [µg/mL]
CC(C)C#CC[C@@H](C)[C@H]1CC[C@H]2[C@@H]3C(=O)C=C4C[C@@H](O)CC[C@]4(C)[C@H]3CC[C@]12C [GELLIUSTEROL C] | 0.5 (≈ 1.26 µM) | > 1 | > 1 | > 1 | > 1
CC#CC[C@@H](C)[C@H]1CC[C@H]2[C@@H]3[C@H](O)C=C4C[C@@H](O)CC[C@]4(C)[C@H]3CC[C@]12C [GELLIUSTEROL A] | > 1 | > 1 | > 1 | > 1 | > 1
CC#CC[C@@H](C)[C@H]1CC[C@H]2[C@@H]3C(=O)C=C4C[C@@H](O)CC[C@]4(C)[C@H]3CC[C@]12C [GELLIUSTEROL B] | > 1 | > 1 | > 1 | > 1 | > 1
